Measurements taken from PubChem BioAssay (NCI).
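All cell lines were grown in 96-well plates and treated with compound for 48 hours. Definition used: TGI = concentration required for complete inhibition of growth.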

Assays:
Test in all cases: growth of human tumour cells (NCI), 48 h
[1] = test system: 786-0 renal
[2] = test system: A498 renal
[3] = test system: A549 NSCLC
[4] = test system: ACHN renal
[5] = test system: CAKI-1 renal
[6] = test system: CCRF-CEM leukemia
[7] = test system: COLO 205 colon
[8] = test system: DLD-1 colon
[9] = test system: DMS 114 small cell lung
[10] = test system: DMS 273 small cell lung
[11] = test system: EKVX NSCLC
[12] = test system: HCC-2998 colon
[13] = test system: HCT-116 colon
[14] = test system: HCT-15 colon
[15] = test system: HL-60(TB) leukemia
[16] = test system: HOP-18 NSCLC
[17] = test system: HOP-62 NSCLC
[18] = test system: HOP-92 NSCLC
[19] = test system: HT29 colon
[20] = test system: IGROV1 ovarian
[21] = test system: K-562 leukemia
[22] = test system: KM12 colon
[23] = test system: KM20L2 colon
[24] = test system: LOX IMVI melanoma
[25] = test system: LXFL 529 NSCLC
[26] = test system: M14 melanoma
[27] = test system: M19-MEL melanoma
[28] = test system: MALME-3M melanoma
[29] = test system: NCI-H226 lung
[30] = test system: NCI-H23 lung
[31] = test system: NCI-H460 lung
[32] = test system: NCI-H522 lung
[33] = test system: OVCAR-3 ovarian
[34] = test system: OVCAR-4 ovarian
[35] = test system: OVCAR-5 ovarian
[36] = test system: OVCAR-8 ovarian
[37] = test system: RPMI-8226 leukemia
[38] = test system: RXF 393 renal
[39] = test system: SF-268 CNS
[40] = test system: SF-295 CNS
[41] = test system: SF-539 CNS
[42] = test system: SK-MEL-2 melanoma
[43] = test system: SK-MEL-28 melanoma
[44] = test system: SK-MEL-5 melanoma
[45] = test system: SK-OV-3 ovarian
[46] = test system: SN12C renal
[47] = test system: SNB-19 CNS
[48] = test system: SNB-75 CNS
[49] = test system: SNB-78 CNS
[50] = test system: SR leukemia
[51] = test system: SW-620 colon
[52] = test system: TK-10 renal
[53] = test system: U251 CNS
[54] = test system: UACC-257 melanoma
[55] = test system: UACC-62 melanoma
[56] = test system: UO-31 renal
[57] = test system: MOLT-4 leukemia
[58] = test system: RXF-631 renal
[59] = test system: XF 498 CNS

Structure (SMILES): C=CCc1ccc(Oc2cc(CC=C)c3c(c2O)O[C@@H](CO)[C@H]3c2ccc(O)c(-c3cc(CC=C)ccc3O)c2)cc1
- TGI [1]: > 100 µM
- TGI [2]: > 100 µM
- TGI [3]: > 100 µM
- TGI [4]: > 100 µM
- TGI [5]: > 100 µM
- TGI [6]: 46.6 µM
- TGI [7]: > 100 µM
- TGI [8]: > 100 µM
- TGI [9]: 54.6 µM
- TGI [10]: > 100 µM
- TGI [11]: > 100 µM
- TGI [12]: > 100 µM
- TGI [13]: > 100 µM
- TGI [14]: > 100 µM
- TGI [15]: 55.3 µM
- TGI [16]: > 100 µM
- TGI [17]: > 100 µM
- TGI [18]: > 100 µM
- TGI [19]: 49.1 µM
- TGI [20]: 72.8 µM
- TGI [21]: > 100 µM
- TGI [22]: > 100 µM
- TGI [23]: 93.5 µM
- TGI [24]: 30.9 µM
- TGI [25]: 90.7 µM
- TGI [26]: > 100 µM
- TGI [27]: > 100 µM
- TGI [28]: > 100 µM
- TGI [29]: > 100 µM
- TGI [30]: > 100 µM
- TGI [31]: > 100 µM
- TGI [32]: 32.6 µM
- TGI [33]: > 100 µM
- TGI [34]: > 100 µM
- TGI [35]: > 100 µM
- TGI [36]: > 100 µM
- TGI [37]: > 100 µM
- TGI [38]: > 100 µM
- TGI [39]: > 100 µM
- TGI [40]: > 100 µM
- TGI [41]: > 100 µM
- TGI [42]: 65.7 µM
- TGI [43]: > 100 µM
- TGI [44]: > 100 µM
- TGI [45]: > 100 µM
- TGI [46]: > 100 µM
- TGI [47]: > 100 µM
- TGI [48]: > 100 µM
- TGI [49]: > 100 µM
- TGI [50]: 46.9 µM
- TGI [51]: > 100 µM
- TGI [52]: > 100 µM
- TGI [53]: 51.8 µM
- TGI [54]: > 100 µM
- TGI [55]: 85 µM
- TGI [56]: > 100 µM

Structure (SMILES): O=C1CCCC[C@H]1[C@H]1CCC[C@@H]([C@H]2CCCCC2=O)C1=O
- TGI [1]: > 100 µM
- TGI [2]: > 100 µM
- TGI [3]: > 100 µM
- TGI [4]: > 100 µM
- TGI [5]: > 100 µM
- TGI [6]: > 100 µM
- TGI [7]: > 100 µM
- TGI [8]: > 100 µM
- TGI [10]: > 100 µM
- TGI [11]: > 100 µM
- TGI [12]: > 100 µM
- TGI [13]: > 100 µM
- TGI [14]: > 100 µM
- TGI [15]: > 100 µM
- TGI [16]: > 100 µM
- TGI [17]: > 100 µM
- TGI [18]: > 100 µM
- TGI [19]: > 100 µM
- TGI [20]: > 100 µM
- TGI [21]: > 100 µM
- TGI [22]: > 100 µM
- TGI [23]: > 100 µM
- TGI [24]: > 100 µM
- TGI [25]: > 100 µM
- TGI [26]: > 100 µM
- TGI [27]: > 100 µM
- TGI [28]: > 100 µM
- TGI [57]: > 100 µM
- TGI [29]: > 100 µM
- TGI [30]: > 100 µM
- TGI [31]: > 100 µM
- TGI [32]: > 100 µM
- TGI [33]: > 100 µM
- TGI [34]: > 100 µM
- TGI [35]: > 100 µM
- TGI [37]: > 100 µM
- TGI [38]: > 100 µM
- TGI [58]: > 100 µM
- TGI [39]: > 100 µM
- TGI [40]: > 100 µM
- TGI [41]: > 100 µM
- TGI [42]: > 100 µM
- TGI [43]: > 100 µM
- TGI [44]: > 100 µM
- TGI [45]: > 100 µM
- TGI [46]: > 100 µM
- TGI [47]: > 100 µM
- TGI [48]: > 100 µM
- TGI [50]: > 100 µM
- TGI [51]: > 100 µM
- TGI [52]: > 100 µM
- TGI [53]: > 100 µM
- TGI [54]: > 100 µM
- TGI [55]: > 100 µM
- TGI [56]: > 100 µM
- TGI [59]: > 100 µM

Structure (SMILES): CC(=O)O[C@]12CCCCCC1C1(O)C(O)CCCC[C@H]12 (stereo not given in full)
- TGI [1]: > 100 µM
- TGI [3]: > 100 µM
- TGI [4]: > 100 µM
- TGI [6]: > 100 µM
- TGI [7]: > 100 µM
- TGI [9]: > 100 µM
- TGI [10]: > 100 µM
- TGI [11]: > 100 µM
- TGI [14]: > 100 µM
- TGI [15]: > 100 µM
- TGI [17]: > 100 µM
- TGI [19]: > 100 µM
- TGI [21]: > 100 µM
- TGI [22]: > 100 µM
- TGI [23]: > 100 µM
- TGI [24]: > 100 µM
- TGI [25]: > 100 µM
- TGI [26]: > 100 µM
- TGI [27]: > 100 µM
- TGI [28]: > 100 µM
- TGI [57]: > 100 µM
- TGI [29]: > 100 µM
- TGI [30]: > 100 µM
- TGI [31]: > 100 µM
- TGI [32]: > 100 µM
- TGI [34]: > 100 µM
- TGI [36]: > 100 µM
- TGI [37]: > 100 µM
- TGI [38]: > 100 µM
- TGI [39]: > 100 µM
- TGI [40]: > 100 µM
- TGI [42]: > 100 µM
- TGI [43]: > 100 µM
- TGI [44]: > 100 µM
- TGI [45]: > 100 µM
- TGI [46]: > 100 µM
- TGI [47]: > 100 µM
- TGI [48]: > 100 µM
- TGI [49]: > 100 µM
- TGI [50]: > 100 µM
- TGI [51]: > 100 µM
- TGI [52]: > 100 µM
- TGI [53]: > 100 µM
- TGI [54]: > 100 µM
- TGI [55]: > 100 µM
- TGI [56]: > 100 µM
- TGI [59]: > 100 µM

Structure (SMILES): O=C(O)[C@H](NS(=O)(=O)c1ccc([N+](=O)[O-])cc1)c1ccccc1
- TGI [1]: > 100 µM
- TGI [3]: > 100 µM
- TGI [4]: > 100 µM
- TGI [5]: > 100 µM
- TGI [6]: > 100 µM
- TGI [7]: > 100 µM
- TGI [8]: > 100 µM
- TGI [9]: > 100 µM
- TGI [10]: > 100 µM
- TGI [11]: > 100 µM
- TGI [12]: > 100 µM
- TGI [13]: > 100 µM
- TGI [14]: > 100 µM
- TGI [16]: > 100 µM
- TGI [17]: > 100 µM
- TGI [18]: > 100 µM
- TGI [19]: > 100 µM
- TGI [20]: > 100 µM
- TGI [21]: > 100 µM
- TGI [22]: > 100 µM
- TGI [23]: > 100 µM
- TGI [24]: > 100 µM
- TGI [25]: > 100 µM
- TGI [26]: > 100 µM
- TGI [27]: > 100 µM
- TGI [28]: > 100 µM
- TGI [57]: > 100 µM
- TGI [29]: > 100 µM
- TGI [30]: > 100 µM
- TGI [31]: > 100 µM
- TGI [32]: > 100 µM
- TGI [33]: > 100 µM
- TGI [34]: > 100 µM
- TGI [35]: > 100 µM
- TGI [36]: > 100 µM
- TGI [37]: > 100 µM
- TGI [38]: > 100 µM
- TGI [58]: > 100 µM
- TGI [39]: > 100 µM
- TGI [40]: > 100 µM
- TGI [41]: > 100 µM
- TGI [42]: > 100 µM
- TGI [43]: > 100 µM
- TGI [44]: > 100 µM
- TGI [45]: > 100 µM
- TGI [46]: > 100 µM
- TGI [47]: > 100 µM
- TGI [48]: > 100 µM
- TGI [49]: > 100 µM
- TGI [51]: > 100 µM
- TGI [52]: > 100 µM
- TGI [53]: > 100 µM
- TGI [54]: > 100 µM
- TGI [55]: > 100 µM
- TGI [56]: > 100 µM
- TGI [59]: > 100 µM
